Molecular target: Factor D (Homo sapiens (Human), UniProt P00746)
Assay: biochemical
Format: biochemical
Settings: read-out: IC50

Sequence of Factor D (P00746 26-253): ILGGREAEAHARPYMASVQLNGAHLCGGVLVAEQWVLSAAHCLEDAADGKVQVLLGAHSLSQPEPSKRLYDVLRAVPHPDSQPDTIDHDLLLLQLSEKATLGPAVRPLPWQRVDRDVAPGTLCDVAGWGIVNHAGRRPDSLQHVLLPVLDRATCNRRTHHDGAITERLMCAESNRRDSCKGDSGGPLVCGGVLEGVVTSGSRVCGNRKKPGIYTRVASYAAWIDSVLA

SMILES | IC50
NC(=O)n1cc(NC(=O)N2C[C@@H](N)C[C@H]2C(=O)NCc2cccc(Oc3ccccc3)c2)c2ccccc21 [Example 38, (2S,4S)-4-Amino-pyrrolidine-1,2-dicarboxylic acid 1-[(1-carbamoyl-1H-indol-3-yl)-amide] 2-(3-phenoxy-benzylamide)] | 6.3 µM
NC(=O)n1cc(NC(=O)N2C[C@@H](N)C[C@H]2C(=O)NCc2cccc(-c3ccccc3)c2)c2ccccc21 [Example 39, (2S,4S)-4-Amino-pyrrolidine-1,2-dicarboxylic acid 2-[(biphenyl-3-ylmethyl)-amide] 1-[(1-carbamoyl-1H-indol-3-yl)-amide]] | 1.05 µM
NC(=O)n1cc(NC(=O)N2C[C@@H](N)C[C@H]2C(=O)NCc2cccc(-n3cccc3)c2)c2ccccc21 [Example 40, (2S,4S)-4-Amino-pyrrolidine-1,2-dicarboxylic acid 1-[(1-carbamoyl-1H-indol-3-yl)-amide] 2-(3-pyrrol-1-yl-benzylamide)] | 11.2 µM
NC(=O)n1cc(NC(=O)N2C[C@@H](N)C[C@H]2C(=O)NCc2cccc(-c3ccc(Cl)s3)c2)c2ccccc21 [Example 41, (2S,4S)-4-Amino-pyrrolidine-1,2-dicarboxylic acid 1-[(1-carbamoyl-1H-indol-3-yl)-amide] 2-[3-(5-chloro-thiophen-2-yl)-benzylamide]] | 3.2 µM
NC(=O)n1cc(NC(=O)N2C[C@@H](N)C[C@H]2C(=O)NCc2ccc(-c3ccc(Cl)s3)s2)c2ccccc21 [Example 42, (2S,4S)-4-Amino-pyrrolidine-1,2-dicarboxylic acid 1-[(1-carbamoyl-1H-indol-3-yl)-amide] 2-[(5′-chloro-[2,2′]bithiophenyl-5-ylmethyl)-amide]] | 2.85 µM
Cc1ccc(CNC(=O)[C@@H]2C[C@H](N)CN2C(=O)Nc2cn(C(N)=O)c3ccccc23)cc1 [Example 43, (2S,4S)-4-Amino-pyrrolidine-1,2-dicarboxylic acid 1-[(1-carbamoyl-1H-indol-3-yl)-amide] 2-(4-methyl-benzylamide)] | 7.75 µM
NC(=O)n1cc(NC(=O)N2C[C@@H](N)C[C@H]2C(=O)NCc2ccc(C(F)(F)F)cc2)c2ccccc21 [Example 45, (2S,4S)-4-Amino-pyrrolidine-1,2-dicarboxylic acid 1-[(1-carbamoyl-1H-indol-3-yl)-amide] 2-(4-trifluoromethyl-benzylamide)] | 22.5 µM
NC(=O)n1cc(NC(=O)N2C[C@@H](N)C[C@H]2C(=O)NCc2ccc(OC(F)(F)F)cc2)c2ccccc21 [Example 46, (2S,4S)-4-Amino-pyrrolidine-1,2-dicarboxylic acid 1-[(1-carbamoyl-1H-indol-3-yl)-amide] 2-(4-trifluoromethoxy-benzylamide)] | 22.8 µM
NC(=O)n1cc(NC(=O)N2C[C@@H](N)C[C@H]2C(=O)NCc2ccc(O)cc2)c2ccccc21 [Example 47, (2S,4S)-4-Amino-pyrrolidine-1,2-dicarboxylic acid 1-[(1-carbamoyl-1H-indol-3-yl)-amide] 2-(4-hydroxy-benzylamide)] | 8.95 µM
NC(=O)n1cc(NC(=O)N2C[C@@H](N)C[C@H]2C(=O)NCc2ccccc2O)c2ccccc21 [Example 48, (2S,4S)-4-Amino-pyrrolidine-1,2-dicarboxylic acid 1-[(1-carbamoyl-1H-indol-3-yl)-amide] 2-(2-hydroxy-benzylamide)] | 7.5 µM
NC(=O)n1cc(NC(=O)N2C[C@@H](N)C[C@H]2C(=O)NCc2ccccc2F)c2ccccc21 [Example 49, (2S,4S)-4-Amino-pyrrolidine-1,2-dicarboxylic acid 1-[(1-carbamoyl-1H-indol-3-yl)-amide] 2-(2-fluoro-benzylamide)] | 0.9 µM
NC(=O)n1cc(NC(=O)N2C[C@@H](N)C[C@H]2C(=O)NCc2ccccc2Cl)c2ccccc21 [Example 50, (2S,4S)-4-Amino-pyrrolidine-1,2-dicarboxylic acid 1-[(1-carbamoyl-1H-indol-3-yl)-amide] 2-(2-chloro-benzylamide)] | 21.6 µM
NC(=O)n1cc(NC(=O)N2C[C@@H](N)C[C@H]2C(=O)NCc2ccccc2-c2ccccc2)c2ccccc21 [Example 51, (2S,4S)-4-Amino-pyrrolidine-1,2-dicarboxylic acid 2-[(biphenyl-2-ylmethyl)-amide] 1-[(1-carbamoyl-1H-indol-3-yl)-amide]] | 8.5 µM
NC(=O)n1cc(NC(=O)N2C[C@@H](N)C[C@H]2C(=O)NCc2cccc(F)c2F)c2ccccc21 [Example 52, (2S,4S)-4-Amino-pyrrolidine-1,2-dicarboxylic acid 1-[(1-carbamoyl-1H-indol-3-yl)-amide] 2-(2,3-difluoro-benzylamide)] | 0.4 µM
COc1ccc(Cl)cc1CNC(=O)[C@@H]1C[C@H](N)CN1C(=O)Nc1cn(C(N)=O)c2ccccc12 [Example 53, (2S,4S)-4-Amino-pyrrolidine-1,2-dicarboxylic acid 1-[(1-carbamoyl-1H-indol-3-yl)-amide] 2-(5-chloro-2-methoxy-benzylamide)] | 1.75 µM
COc1ccc(CNC(=O)[C@@H]2C[C@H](N)CN2C(=O)Nc2cn(C(N)=O)c3ccccc23)cc1Cl [Example 54, (2S,4S)-4-Amino-pyrrolidine-1,2-dicarboxylic acid 1-[(1-carbamoyl-1H-indol-3-yl)-amide] 2-(3-chloro-4-methoxy-benzylamide)] | 1.85 µM

SMILES | IC50
NC(=O)n1cc(NC(=O)N2C[C@@H](N)C[C@H]2C(=O)NCc2cc(Cl)ccc2F)c2ccccc21 [Example 55, (2S,4S)-4-Amino-pyrrolidine-1,2-dicarboxylic acid 1-[(1-carbamoyl-1H-indol-3-yl)-amide] 2-(5-chloro-2-fluoro-benzylamide)] | 0.125 µM
NC(=O)n1cc(NC(=O)N2C[C@@H](N)C[C@H]2C(=O)NCc2ccc(F)c(Cl)c2)c2ccccc21 [Example 56, (2S,4S)-4-Amino-pyrrolidine-1,2-dicarboxylic acid 1-[(1-carbamoyl-1H-indol-3-yl)-amide] 2-(3-chloro-4-fluoro-benzylamide)] | 1.95 µM
Cc1c(Cl)cccc1CNC(=O)[C@@H]1C[C@H](N)CN1C(=O)Nc1cn(C(N)=O)c2ccccc12 [Example 57, (2S,4S)-4-Amino-pyrrolidine-1,2-dicarboxylic acid 1-[(1-carbamoyl-1H-indol-3-yl)-amide] 2-(3-chloro-2-methyl-benzylamide)] | 1.35 µM
Cc1ccc(Cl)cc1CNC(=O)[C@@H]1C[C@H](N)CN1C(=O)Nc1cn(C(N)=O)c2ccccc12 [Example 58, (2S,4S)-4-Amino-pyrrolidine-1,2-dicarboxylic acid 1-[(1-carbamoyl-1H-indol-3-yl)-amide] 2-(5-chloro-2-methyl-benzylamide)] | 0.35 µM
Cc1ccc(CNC(=O)[C@@H]2C[C@H](N)CN2C(=O)Nc2cn(C(N)=O)c3ccccc23)cc1Cl [Example 59, (2S,4S)-4-Amino-pyrrolidine-1,2-dicarboxylic acid 1-[(1-carbamoyl-1H-indol-3-yl)-amide] 2-(3-chloro-4-methyl-benzylamide)] | 6.4 µM
NC(=O)n1cc(NC(=O)N2C[C@@H](N)C[C@H]2C(=O)NCc2cc(Cl)cc(Cl)c2)c2ccccc21 [Example 60, (2S,4S)-4-Amino-pyrrolidine-1,2-dicarboxylic acid 1-[(1-carbamoyl-1H-indol-3-yl)-amide] 2-(3,5-dichloro-benzylamide)] | 0.8 µM
NC(=O)n1cc(NC(=O)N2C[C@@H](N)C[C@H]2C(=O)NCc2ccc(Cl)c(Cl)c2)c2ccccc21 [Example 61, (2S,4S)-4-Amino-pyrrolidine-1,2-dicarboxylic acid 1-[(1-carbamoyl-1H-indol-3-yl)-amide] 2-(3,4-dichloro-benzylamide)] | 7.1 µM
NC(=O)n1cc(NC(=O)N2C[C@@H](N)C[C@H]2C(=O)NCc2c(F)ccc(Cl)c2F)c2ccccc21 [Example 62, (2S,4S)-4-Amino-pyrrolidine-1,2-dicarboxylic acid 1-[(1-carbamoyl-1H-indol-3-yl)-amide] 2-(3-chloro-2,6-difluoro-benzylamide)] | 0.085 µM
NC(=O)n1cc(NC(=O)N2C[C@@H](N)C[C@H]2C(=O)NCc2ccc3ccccc3c2)c2ccccc21 [Example 63, (2S,4S)-4-Amino-pyrrolidine-1,2-dicarboxylic acid 1-[(1-carbamoyl-1H-indol-3-yl)-amide] 2-[(naphthalen-2-ylmethyl)-amide]] | 11.4 µM
NC(=O)n1cc(NC(=O)N2C[C@@H](N)C[C@H]2C(=O)NCc2cccc3ccccc23)c2ccccc21 [Example 64, (2S,4S)-4-Amino-pyrrolidine-1,2-dicarboxylic acid 1-[(1-carbamoyl-1H-indol-3-yl)-amide] 2-[(naphthalen-1-ylmethyl)-amide]] | 22.4 µM
Cc1cnc(CNC(=O)[C@@H]2C[C@H](N)CN2C(=O)Nc2cn(C(N)=O)c3ccccc23)s1 [Example 65, (2S,4S)-4-Amino-pyrrolidine-1,2-dicarboxylic acid 1-[(1-carbamoyl-1H-indol-3-yl)-amide] 2-[(5-methyl-thiazol-2-ylmethyl)-amide]] | 13.1 µM
NC(=O)n1cc(NC(=O)N2C[C@@H](N)C[C@H]2C(=O)NCc2ccc(Cl)s2)c2ccccc21 [Example 66, (2S,4S)-4-Amino-pyrrolidine-1,2-dicarboxylic acid 1-[(1-carbamoyl-1H-indol-3-yl)-amide] 2-[(5-chloro-thiophen-2-ylmethyl)-amide]] | 0.065 µM
Cc1ccnc(CNC(=O)[C@@H]2C[C@H](N)CN2C(=O)Nc2cn(C(N)=O)c3ccccc23)c1 [Example 67, (2S,4S)-4-Amino-pyrrolidine-1,2-dicarboxylic acid 1-[(1-carbamoyl-1H-indol-3-yl)-amide] 2-[(4-methyl-pyridin-2-ylmethyl)-amide]] | 22.2 µM
C[C@H](NC(=O)[C@@H]1C[C@H](N)CN1C(=O)Nc1cn(C(N)=O)c2ccccc12)c1cccc(Cl)c1 [Example 68, (2S,4S)-4-Amino-pyrrolidine-1,2-dicarboxylic acid 1-[(1-carbamoyl-1H-indol-3-yl)-amide] 2-{[(S)-1-(3-chloro-phenyl)-ethyl]-amide}] | 15.1 µM
C[C@@H](NC(=O)[C@@H]1C[C@H](N)CN1C(=O)Nc1cn(C(N)=O)c2ccccc12)c1cccc(Cl)c1 [Example 69, (2S,4S)-4-Amino-pyrrolidine-1,2-dicarboxylic acid 1-[(1-carbamoyl-1H-indol-3-yl)-amide] 2-{[(R)-1-(3-chloro-phenyl)-ethyl]-amide}] | 1.05 µM

Reference: US9085555B2, “Complement pathway modulators and uses thereof” (priority 2011, dated 2015)
